Test results published in patent US12281225B2, “Process for preparing stable polymers containing vinylimidazole” (BASF SE, priority 2018, dated 2025).

Legend:
[1] = system: Bacteria: Escherichia coli, Staphylococcus aureus, Pseudomonas aeruginosa, Pseudomonas putida, Burkholderia cepacia, Alcaligenes faecalis; assay: Preservation test with periodic inoculation, bacteria assessment; format: cell-based; conditions: for Start sample measurement, bact. assess., 4th inoculation: freshly formulated; for 60 d 40° C., bact. assess., 4th inoculation: sample stored 60 d at 40° C.
How it was run: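 Polymer samples (25 g) containing preservative were inoculated weekly, four times, with 10^9/ml bacterial or yeast mixtures (0.5 ml). Weekly streaks on agar were scored semiquantitatively (−− to ++) after 3 days at 25 °C, on fresh samples and on samples stored 60 days at 40 °C.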

[2] = Physical stability; visual assessment (color, turbidity, phase separation); format: physicochemical; design: key: ++: no discernible change with respect to color, turbidity or phase separation; +: marginal change in color number, somewhat increased Tyndall effect but no turbidity; 0: easily discernible increase in color number and moderate turbidity−no phase separation; −: turbidity and change in color number readily discernible by visual assessment; −−: strong color change with strong turbidity and incipient phase separation
How it was run: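 Samples were inspected visually for color, turbidity and phase separation and scored on a five-step scale. Scores run from ++ (no discernible change) to −− (strong color change, strong turbidity, incipient phase separation).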

[3] = Analysis of active substance: preservative concentration before and after storage in VI-containing polymer solution; format: physicochemical; conditions: for active-substance concentration, 0 d, RT: before storage; for active-substance concentration, 14 d, 40° C.: storage 14 d at 40° C.; for active-substance concentration, 28 d, 40° C.: storage 28 d at 40° C.; for active-substance concentration, 60 d 40° C.: storage 60 d at 40° C.
How it was run: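 Preservatives (MIT, BIT, CMIT, OIT, DCOIT, iodopropynyl butyl carbamate) in aqueous vinylpyrrolidone–vinylimidazole copolymer solution quantified after dilution by isocratic RP18 chromatography with UV detection, using an acid-methanol eluent.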

[4] = Iodine color number according to DIN 6162:2014-09; format: physicochemical
[5] = Polymer P5 (HP56) with stabilizer

## CCCCNC(=O)OCC#CI [Iodopropynyl butyl carbamate, iodopropynyl butyl carbamate]
[1]; Polymer P1
  Start sample measurement, bact. assess., 4th inoculation: − (slight growth, max. 100 colonies)
  60 d 40° C., bact. assess., 4th inoculation: 0 (moderate growth, max. 400 colonies)
[1]; Polymer P2
  Start sample measurement, bact. assess., 4th inoculation: − (slight growth, max. 100 colonies)
  60 d 40° C., bact. assess., 4th inoculation: +
[1]; Polymer P3
  Start sample measurement, bact. assess., 4th inoculation: − (slight growth, max. 100 colonies)
  60 d 40° C., bact. assess., 4th inoculation: +
[1]; Polymer P4
  60 d 40° C., bact. assess., 4th inoculation: 0 (moderate growth, max. 400 colonies)
[1]; Polymer P5 (HP56)
  Start sample measurement, bact. assess., 4th inoculation: − (slight growth, max. 100 colonies)
  60 d 40° C., bact. assess., 4th inoculation: +
[1]; Polymer P6
  60 d 40° C., bact. assess., 4th inoculation: +
[1]; Polymer P7
  60 d 40° C., bact. assess., 4th inoculation: +
[1]; Polymer P8
  Start sample measurement, bact. assess., 4th inoculation: − (slight growth, max. 100 colonies)
  60 d 40° C., bact. assess., 4th inoculation: +
[1]; Polymer P9
  60 d 40° C., bact. assess., 4th inoculation: +
[2]; Polymer P1 with stabilizer
  Physical stability, 60 d 40° C.*: −
[2]; Polymer P2 with stabilizer
  Physical stability, 60 d 40° C.*: −
[2]; Polymer P3 with stabilizer
  Physical stability, 60 d 40° C.*: −
[2]; Polymer P4 with stabilizer
  Physical stability, 60 d 40° C.*: −
[2]; [5]
  Physical stability, 60 d 40° C.*: −
[2]; Polymer P6 with stabilizer
  Physical stability, 60 d 40° C.*: −
[2]; Polymer P7 with stabilizer
  Physical stability, 60 d 40° C.*: −
[2]; Polymer P8 with stabilizer
  Physical stability, 60 d 40° C.*: −
[2]; Polymer P9 with stabilizer
  Physical stability, 60 d 40° C.*: −
[3]; in Polymer P1
  active-substance concentration, 0 d, RT: 250 ppm
  active-substance concentration, 14 d, 40° C.: 206 ppm
  active-substance concentration, 28 d, 40° C.: 176 ppm
  active-substance concentration, 60 d 40° C.: 84 ppm
[3]; in Polymer P2
  active-substance concentration, 0 d, RT: 250 ppm
  active-substance concentration, 14 d, 40° C.: 225 ppm
  active-substance concentration, 28 d, 40° C.: 183 ppm
  active-substance concentration, 60 d 40° C.: 122 ppm
[3]; in Polymer P3
  active-substance concentration, 0 d, RT: 250 ppm
  active-substance concentration, 14 d, 40° C.: 221 ppm
  active-substance concentration, 28 d, 40° C.: 190 ppm
  active-substance concentration, 60 d 40° C.: 107 ppm
[3]; in Polymer P4
  active-substance concentration, 0 d, RT: 250 ppm
  active-substance concentration, 14 d, 40° C.: 212 ppm
  active-substance concentration, 28 d, 40° C.: 188 ppm
  active-substance concentration, 60 d 40° C.: 101 ppm
[3]; in Polymer P5 (HP56)
  active-substance concentration, 0 d, RT: 250 ppm
  active-substance concentration, 14 d, 40° C.: 206 ppm
  active-substance concentration, 28 d, 40° C.: 176 ppm
  active-substance concentration, 60 d 40° C.: 84 ppm
[3]; in Polymer P6
  active-substance concentration, 0 d, RT: 250 ppm
  active-substance concentration, 14 d, 40° C.: 201 ppm
  active-substance concentration, 28 d, 40° C.: 174 ppm
  active-substance concentration, 60 d 40° C.: 80 ppm
[3]; in Polymer P7
  active-substance concentration, 0 d, RT: 250 ppm
  active-substance concentration, 14 d, 40° C.: 207 ppm
  active-substance concentration, 28 d, 40° C.: 178 ppm
  active-substance concentration, 60 d 40° C.: 87 ppm
[3]; in Polymer P8
  active-substance concentration, 0 d, RT: 250 ppm
  active-substance concentration, 14 d, 40° C.: 206 ppm
  active-substance concentration, 28 d, 40° C.: 176 ppm
  active-substance concentration, 60 d 40° C.: 84 ppm
[3]; in Polymer P9
  active-substance concentration, 0 d, RT: 250 ppm
  active-substance concentration, 14 d, 40° C.: 191 ppm
  active-substance concentration, 28 d, 40° C.: 160 ppm
  active-substance concentration, 60 d 40° C.: 78 ppm
[4]; Polymer P1 with stabilizer
  Iodine color number, 60 d 40° C.: 7.5
  Iodine color number, start: 2.8
[4]; Polymer P2 with stabilizer
  Iodine color number, 60 d 40° C.: 8.0
  Iodine color number, start: 2.8
[4]; Polymer P3 with stabilizer
  Iodine color number, 60 d 40° C.: 10.4
  Iodine color number, start: 3.4
[4]; Polymer P4 with stabilizer
  Iodine color number, 60 d 40° C.: 10.0
  Iodine color number, start: 3.4
[4]; [5]
  Iodine color number, 60 d 40° C.: 11.7
  Iodine color number, start: 3.4
[4]; Polymer P6 with stabilizer
  Iodine color number, 60 d 40° C.: 11.0
  Iodine color number, start: 3.4
[4]; Polymer P7 with stabilizer
  Iodine color number, 60 d 40° C.: 11.0
  Iodine color number, start: 3.4
[4]; Polymer P8 with stabilizer
  Iodine color number, 60 d 40° C.: 11.4
  Iodine color number, start: 3.4
[4]; Polymer P9 with stabilizer
  Iodine color number, 60 d 40° C.: 16.9
  Iodine color number, start: 3.9
